Numbered stars: 1 amine (or outer) side, 2 acyl side, 3 side chain; on linkers, the order of the positions; unused ones are H or OH. Bridge positions count the residues as written; N and C are the ends. Square brackets hold non-standard residues; d marks the D form. Peptide text beside a SMILES is read from it. * marks the point of attachment. hPhe(3-Cl-4-CF3) = N[C@@H](CCc1ccc(C(F)(F)F)c(Cl)c1)C(=O)O; NMePhe(4-Me) = CN[C@@H](Cc1ccc(C)cc1)C(=O)O; NMePhe(2-Cl) = CN[C@@H](Cc1ccccc1Cl)C(=O)O; X61 = O=C(CN(CCCN1CCC(F)(F)CC1)[*:1])[*:2]; X77 = O=C(CN(CCN1CCC(F)(F)CC1)[*:1])[*:2]; NGly(CH2(3-pyridyl)) = O=C(O)CNCc1cccnc1; Gly(Nα-CH2(4-Pyr)) = O=C(O)CNCc1ccncc1; X132 = O=C(CN(CCOCC(F)(F)F)[*:1])[*:2]; X78 = O=C(CN(CCc1cccnc1)[*:1])[*:2]; NMeCha = CN[C@@H](CC1CCCCC1)C(=O)O; NMeChg = CN[C@H](C(=O)O)C1CCCCC1; X12 = O=C(CN(CC1COC1)[*:1])[*:2]; X68 = COCCOCCN(CC(=O)[*:2])[*:1]; NMeD = CN[C@@H](CC(=O)O)C(=O)O; NMeL = CN[C@@H](CC(C)C)C(=O)O; NMeNle = CCCC[C@H](NC)C(=O)O; NMeV = CN[C@H](C(=O)O)C(C)C; d(β3hA) = C[C@@H](N)CC(=O)O; NMeAbu = CC[C@H](NC)C(=O)O; NMeS = CN[C@@H](CO)C(=O)O; Morpholide = C1CN(*)CCO1; NMeA = CN[C@@H](C)C(=O)O; Piperidide = C1CCN(*)CC1; Pyrrolidide = C1CCN(*)C1; dNMeA = CN[C@H](C)C(=O)O; Ac5c = NC1(C(=O)O)CCCC1; Aze = O=C(O)[C@@H]1CCN1; Sar = CNCC(=O)O; Propyl = CCC*

This assay has as its target protein-protein interaction between Kras and SOS1 (biotin-tagged human Kras loaded with GDP, His-tagged human SOS1) (Homo sapiens (Human), UniProt P01116, G12D). Briefly: Protein-protein interaction inhibition between Kras and SOS1 (KrasG12D-SOS PPI) using AlphaScreen.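 Note: kras produced in E. coli, Ni-coupled donor beads and streptavidin acceptor beads, excitation 680 nm with emission detected at 520–620 nm via singlet oxygen transfer.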 The format is biochemical. To be noted: AlphaScreen; biotin-tagged human Kras loaded with GDP, His-tagged human SOS1; read-out: KRAS G12D-SOS PPI IC50. For orientation: In Alpha technology, singlet oxygen from a donor bead excites a nearby acceptor bead.
A word on the IC50: it is the concentration at which inhibition is half-maximal. Regarding `CC[C@H](C)[C@@H]1NC(=O)[C@H](C)N(C)C(=O)C[C@@H](C(=O)N2CCCCC2)N(C)C(=O)[C@H](C(C)C)N(C)C(=O)C2(CCCC2)NC(=O)[C@H](Cc2ccccc2Cl)N(C)C(=O)[C@H](CCc2ccc(C(F)(F)F)c(Cl)c2)NC(=O)CN(C)C(=O)[C@H](Cc2ccc(C)cc2)N(C)C(=O)CN(C)C(=O)CN(C)C1=O` [Compound 2007] ([NMeA]I[Sar][Sar][NMePhe(4-Me)][Sar][hPhe(3-Cl-4-CF3)][NMePhe(2-Cl)][Ac5c][NMeV][NMeD]-Piperidide; lactam N-11), the 50% inhibitory concentration (IC50) was 230 nM.
In the case of `CC[C@H](C)[C@@H]1NC(=O)[C@H](C)N(C)C(=O)C[C@@H](C(=O)N2CCCC2)N(C)C(=O)[C@H](C(C)C)N(C)C(=O)C2(CCCC2)NC(=O)[C@H](Cc2ccccc2Cl)N(C)C(=O)[C@H](CCc2ccc(C(F)(F)F)c(Cl)c2)NC(=O)CN(C)C(=O)[C@H](CC2CCCCC2)N(C)C(=O)CN(C)C(=O)CN(C)C1=O` [Compound 2008] ([NMeA]I[Sar][Sar][NMeCha][Sar][hPhe(3-Cl-4-CF3)][NMePhe(2-Cl)][Ac5c][NMeV][NMeD]-Pyrrolidide; lactam N-11), the 50% inhibitory concentration (IC50) turned out to be 140 nM.
With `CC[C@H](C)[C@@H]1NC(=O)[C@H](C)N(C)C(=O)C[C@@H](C)NC(=O)[C@H](C(C)C)N(C)C(=O)C2(CCCC2)NC(=O)[C@@H]2CCCN2C(=O)[C@H](CCc2ccc(C(F)(F)F)c(Cl)c2)NC(=O)[C@@H](C)N(C)C(=O)[C@H](CC2CCCCC2)N(C)C(=O)[C@@H]2CCCN2C(=O)[C@@H]2CCN2C1=O` [Compound 2009] (cyclo([Ac5c][NMeV][d(β3hA)][NMeA]I[Aze]P[NMeCha][dNMeA][hPhe(3-Cl-4-CF3)]P)), the IC50 came to 82 nM.
Turning to `CC[C@H](C)[C@@H]1NC(=O)[C@H](C)N(C)C(=O)C[C@@H](C)NC(=O)[C@H](C(C)C)N(C)C(=O)C2(CCCC2)NC(=O)[C@@H]2CCCN2C(=O)[C@H](CCc2ccc(C(F)(F)F)c(Cl)c2)NC(=O)[C@@H](C)N(C)C(=O)[C@H](CC2CCCCC2)N(C)C(=O)[C@@H]2CCN2C(=O)[C@H](CC)N(C)C1=O` [Compound 2012] (cyclo([Ac5c][NMeV][d(β3hA)][NMeA]I[NMeAbu][Aze][NMeCha][dNMeA][hPhe(3-Cl-4-CF3)]P)), the IC50 stood at 200 nM.
As to `CC[C@H](C)[C@@H]1NC(=O)[C@H](C)N(C)C(=O)C[C@@H](C)NC(=O)[C@H](C(C)C)N(C)C(=O)C2(CCCC2)NC(=O)[C@@H]2CCCN2C(=O)[C@H](CCc2ccc(C(F)(F)F)c(Cl)c2)NC(=O)[C@@H](C)N(C)C(=O)[C@H](CC2CCCCC2)N(C)C(=O)[C@@H]2CCN2C(=O)[C@@H]2CCN2C1=O` [Compound 2013] (cyclo([Ac5c][NMeV][d(β3hA)][NMeA]I[Aze][Aze][NMeCha][dNMeA][hPhe(3-Cl-4-CF3)]P)), the IC50 came out at 150 nM.
For `CCCOC[C@H]1C(=O)N2CC[C@H]2C(=O)N(C)[C@@H](CC2CCCCC2)C(=O)N(C)[C@H](C)C(=O)N[C@@H](CCc2ccc(C(F)(F)F)c(Cl)c2)C(=O)N2CCC[C@H]2C(=O)NC2(CCCC2)C(=O)N(C)[C@@H](C(C)C)C(=O)N[C@H](C)CC(=O)N(C)[C@@H](C)C(=O)N[C@@H]([C@@H](C)CC)C(=O)N1C` [Compound 2016] (cyclo([Ac5c][NMeV][d(β3hA)][NMeA]I[NMeS](Propyl)[Aze][NMeCha][dNMeA][hPhe(3-Cl-4-CF3)]P)), the half-inhibitory concentration (IC50) came out at 270 nM.
As for `CCCC[C@H]1C(=O)N2CC[C@H]2C(=O)N(C)[C@@H](CC2CCCCC2)C(=O)N(C)[C@H](C)C(=O)N[C@@H](CCc2ccc(C(F)(F)F)c(Cl)c2)C(=O)N2CCC[C@H]2C(=O)NC2(CCCC2)C(=O)N(C)[C@@H](C(C)C)C(=O)N[C@H](C)CC(=O)N(C)[C@@H](C)C(=O)N[C@@H]([C@@H](C)CC)C(=O)N1C` [Compound 2017] (cyclo([Ac5c][NMeV][d(β3hA)][NMeA]I[NMeNle][Aze][NMeCha][dNMeA][hPhe(3-Cl-4-CF3)]P)), the IC50 stood at 350 nM.
For the compound `CC[C@H](C)[C@@H]1NC(=O)[C@H](C)N(C)C(=O)C[C@@H](C)NC(=O)[C@H](C(C)C)N(C)C(=O)C2(CCCC2)NC(=O)[C@@H]2CCCN2C(=O)[C@H](CCc2ccc(C(F)(F)F)c(Cl)c2)NC(=O)[C@@H](C)N(C)C(=O)[C@H](CC2CCCCC2)N(C)C(=O)[C@@H]2CCN2C(=O)[C@H](CC(C)C)N(C)C1=O` [Compound 2018] (cyclo([Ac5c][NMeV][d(β3hA)][NMeA]I[NMeL][Aze][NMeCha][dNMeA][hPhe(3-Cl-4-CF3)]P)), the IC50 turned out to be 320 nM.
Consider `CC[C@H](C)[C@@H]1NC(=O)[C@H](C)N(C)C(=O)C[C@@H](C(=O)N2CCOCC2)N(C)C(=O)[C@H](C(C)C)N(C)C(=O)C2(CCCC2)NC(=O)[C@H](Cc2ccccc2Cl)N(C)C(=O)[C@H](CCc2ccc(C(F)(F)F)c(Cl)c2)NC(=O)CN(C)C(=O)[C@H](CC2CCCCC2)N(C)C(=O)CN(C)C(=O)CN(C)C1=O` [Compound 2020] ([NMeA]I[Sar][Sar][NMeCha][Sar][hPhe(3-Cl-4-CF3)][NMePhe(2-Cl)][Ac5c][NMeV][NMeD]-Morpholide; lactam N-11), for which the IC50 stood at 270 nM.
With `CC[C@H](C)[C@@H]1NC(=O)[C@H](CC(C)C)N(C)C(=O)C[C@@H](C(=O)N2CCCCC2)N(C)C(=O)[C@H](C2CCCCC2)N(C)C(=O)C2(CCCC2)NC(=O)CN(CCCN2CCC(F)(F)CC2)C(=O)[C@H](CCc2ccc(C(F)(F)F)c(Cl)c2)NC(=O)CN(C)C(=O)[C@H](CC2CCCCC2)N(C)C(=O)CN(C)C(=O)CN(C)C1=O` [Compound 2021] ([NMeL]I[Sar][Sar][NMeCha][Sar][hPhe(3-Cl-4-CF3)][X61][Ac5c][NMeChg][NMeD]-Piperidide; lactam N-11), the half-maximal inhibitory concentration (IC50) was found to be 2.8 nM.
Take `CC[C@H](C)[C@@H]1NC(=O)[C@H](CC(C)C)N(C)C(=O)C[C@@H](C(=O)N2CCCCC2)N(C)C(=O)[C@H](C2CCCCC2)N(C)C(=O)C2(CCCC2)NC(=O)CN(CCN2CCC(F)(F)CC2)C(=O)[C@H](CCc2ccc(C(F)(F)F)c(Cl)c2)NC(=O)CN(C)C(=O)[C@H](CC2CCCCC2)N(C)C(=O)CN(C)C(=O)CN(C)C1=O` [Compound 2022] ([NMeL]I[Sar][Sar][NMeCha][Sar][hPhe(3-Cl-4-CF3)][X77][Ac5c][NMeChg][NMeD]-Piperidide; lactam N-11): the half-inhibitory concentration (IC50) worked out at 3.8 nM.
As for `CC[C@H](C)[C@@H]1NC(=O)[C@H](CC(C)C)N(C)C(=O)C[C@@H](C(=O)N2CCCCC2)N(C)C(=O)[C@H](C2CCCCC2)N(C)C(=O)C2(CCCC2)NC(=O)CN(CCOCC(F)(F)F)C(=O)[C@H](CCc2ccc(C(F)(F)F)c(Cl)c2)NC(=O)CN(C)C(=O)[C@H](CC2CCCCC2)N(C)C(=O)CN(C)C(=O)CN(C)C1=O` [Compound 2024] ([NMeL]I[Sar][Sar][NMeCha][Sar][hPhe(3-Cl-4-CF3)][X132][Ac5c][NMeChg][NMeD]-Piperidide; lactam N-11 (inferred); C-terminus assumed), the IC50 was determined as 4.3 nM.
As for `CC[C@H](C)[C@@H]1NC(=O)[C@H](CC(C)C)N(C)C(=O)C[C@@H](C(=O)N2CCCCC2)N(C)C(=O)[C@H](C2CCCCC2)N(C)C(=O)C2(CCCC2)NC(=O)CN(CCOCCOC)C(=O)[C@H](CCc2ccc(C(F)(F)F)c(Cl)c2)NC(=O)CN(C)C(=O)[C@H](CC2CCCCC2)N(C)C(=O)CN(C)C(=O)CN(C)C1=O` [Compound 2025] ([NMeL]I[Sar][Sar][NMeCha][Sar][hPhe(3-Cl-4-CF3)][X68][Ac5c][NMeChg][NMeD]-Piperidide; lactam N-11 (inferred); C-terminus assumed), the figure is 1.4 nM.
With `CC[C@H](C)[C@@H]1NC(=O)[C@H](CC(C)C)N(C)C(=O)C[C@@H](C(=O)N2CCCCC2)N(C)C(=O)[C@H](C2CCCCC2)N(C)C(=O)C2(CCCC2)NC(=O)CN(Cc2cccnc2)C(=O)[C@H](CCc2ccc(C(F)(F)F)c(Cl)c2)NC(=O)CN(C)C(=O)[C@H](CC2CCCCC2)N(C)C(=O)CN(C)C(=O)CN(C)C1=O` [Compound 2026] ([NMeL]I[Sar][Sar][NMeCha][Sar][hPhe(3-Cl-4-CF3)][NGly(CH2(3-pyridyl))][Ac5c][NMeChg][NMeD]-Piperidide; lactam N-11 (inferred); C-terminus assumed) the figure was 1.3 nM.
On to `CC[C@H](C)[C@@H]1NC(=O)[C@H](CC(C)C)N(C)C(=O)C[C@@H](C(=O)N2CCCCC2)N(C)C(=O)[C@H](C2CCCCC2)N(C)C(=O)C2(CCCC2)NC(=O)CN(CC2COC2)C(=O)[C@H](CCc2ccc(C(F)(F)F)c(Cl)c2)NC(=O)CN(C)C(=O)[C@H](CC2CCCCC2)N(C)C(=O)CN(C)C(=O)CN(C)C1=O` [Compound 2031] ([NMeL]I[Sar][Sar][NMeCha][Sar][hPhe(3-Cl-4-CF3)][X12][Ac5c][NMeChg][NMeD]-Piperidide; lactam N-11 (inferred); C-terminus assumed), for which the IC50 was found to be 0.82 nM.
As for `CC[C@H](C)[C@@H]1NC(=O)[C@H](CC(C)C)N(C)C(=O)C[C@@H](C(=O)N2CCCCC2)N(C)C(=O)[C@H](C2CCCCC2)N(C)C(=O)C2(CCCC2)NC(=O)CN(CCc2cccnc2)C(=O)[C@H](CCc2ccc(C(F)(F)F)c(Cl)c2)NC(=O)CN(C)C(=O)[C@H](CC2CCCCC2)N(C)C(=O)CN(C)C(=O)CN(C)C1=O` [Compound 2032] ([NMeL]I[Sar][Sar][NMeCha][Sar][hPhe(3-Cl-4-CF3)][X78][Ac5c][NMeChg][NMeD]-Piperidide; lactam N-11 (inferred); C-terminus assumed), the IC50 is 1.2 nM.
For the compound `CC[C@H](C)[C@@H]1NC(=O)[C@H](CC(C)C)N(C)C(=O)C[C@@H](C(=O)N2CCCCC2)N(C)C(=O)[C@H](C2CCCCC2)N(C)C(=O)C2(CCCC2)NC(=O)CN(Cc2ccncc2)C(=O)[C@H](CCc2ccc(C(F)(F)F)c(Cl)c2)NC(=O)CN(C)C(=O)[C@H](CC2CCCCC2)N(C)C(=O)CN(C)C(=O)CN(C)C1=O` [Compound 2033] ([NMeL]I[Sar][Sar][NMeCha][Sar][hPhe(3-Cl-4-CF3)][Gly(Nα-CH2(4-Pyr))][Ac5c][NMeChg][NMeD]-Piperidide; lactam N-11 (inferred); C-terminus assumed), the half-maximal inhibitory concentration (IC50) came out at 0.65 nM.

The record behind these values is patent US20240148821A1, “PHARMACEUTICAL USE OF CYCLIC PEPTIDE COMPOUND” (CHUGAI SEIYAKU KABUSHIKI KAISHA, priority 2021, published 2024).
